According to patent US10987319B2, “TFEB activator C1 ameliorates app and tau pathology and rescues cognitive deficits in neurodegenerative diseases” (Hong Kong Baptist University, priority 2018, dated 2021):

Experiments:
Format in all cases: in vivo
[1] = system: APP, APP CTFs, Aβ, LC3-II; test: Western blotting of brain tissue, 5×FAD mice
Protocol: 5×FAD male mice were inbred with wild-type (WT, C57/BL6) female mice to produce heterozygous offspring. Offspring were genotyped to select 5×FAD (APP KM670/671NL (Swedish), APP I716V (Florida), APP V717I (London), PSEN1 M146L (A>C), PSEN1 L286V) gene mutations mice.
(§1) Brain tissues were lysed with RIPA buffer (TBS with 1% NP-40, 1% sodium deoxycholic acid, 0.1% SDS, and protease phosphatase inhibitor cocktails) and centrifuged at 15,000 RPM for 30 min. Supernatant is collected and the pellets were further lysed with 2% SDS in RIPA buffer. Protein concentration was estimated by BCA assay. […] Protein chemiluminescence signal was detected by using ECL kit and quantified using ImageJ software.

[2] = system: 3×Tg mice; test: Morris-water maze; conditions: 50 mg/kg oral 7 months
Protocol: Homozygous 3×Tg mice (APP KM670/671NL (Swedish), MAPT P301L, PSEN1 M146V) were produced in Hong Kong Baptist University animal house and maintained at 23±2° C. temperature, 60±15% relative humidity with free access to food and water ad libitum. Seven months old WT (129/SvJ, n=6 for male mice; n=10 for female mice) and 3×Tg mice (n=6 for male mice; n=10 for female mice) were treated daily with vehicle (1% CMC-Na; Sigma-Aldrich, C5678]), curcumin analogue C1 (2.5 mg/kg, 5 mg/kg, 10 mg/kg) or curcumin (50 mg/kg; Sigma-Aldrich, 08511) suspended in 1% CMC-Na by oral gavage for 7 months. 3×Tg mice were treated with the indicated compounds for 7 months and Morris-water maze (MWM) was used to evaluate the spatial learning memory. MWM is a circular water (21±1° C.) container with 1 meter diameter. Animals were pre-quarantined and acclimatized to the experimenting room at least 1 week before the start of the experiment. The experiment was started with one day visual platform trial. Each mouse underwent 4 visible platform trails (each trial 60 seconds) with different platform placement, positioned above the water level. Hidden platform training was conducted after mixing a non-toxic paint in the water. Mice were trained for 6 continuous days, each day composed of different session with 4 hidden platform trials (each trial 60 seconds). Each session was designed with randomized animal introduction pattern into the water maze with unchanged platform position. Each trial was conducted with 30 min inter-trial interval and provided with external cues. To assess the long term spatial memory retrieval a probe trial (60 seconds) was conducted 24 h after the last training session. During probe trial water maze was divided into 4 quadrants. The hidden platform in the target quadrant was removed after determining its location. Ethnovision XT software was used to observe and record the swimming pattern. During hidden platform training sessions, time spent to find the platform was taken as a parameter to evaluate memory acquisition. In probe trial percentage of time spent in the target quadrant compared to the other 3 quadrants was calculated.

[3] = system: 3×Tg mice; test: Open-field test; conditions: 3×Tg mice, 50 mg/kg oral 7 months
Protocol: Homozygous 3×Tg mice (APP KM670/671NL (Swedish), MAPT P301L, PSEN1 M146V) were produced in Hong Kong Baptist University animal house and maintained at 23±2° C. temperature, 60±15% relative humidity with free access to food and water ad libitum. Seven months old WT (129/SvJ, n=6 for male mice; n=10 for female mice) and 3×Tg mice (n=6 for male mice; n=10 for female mice) were treated daily with vehicle (1% CMC-Na; Sigma-Aldrich, C5678]), curcumin analogue C1 (2.5 mg/kg, 5 mg/kg, 10 mg/kg) or curcumin (50 mg/kg; Sigma-Aldrich, 08511) suspended in 1% CMC-Na by oral gavage for 7 months. 3×Tg mice were treated with the indicated compounds for 7 months and then the open-field test was performed to evaluate the exploratory behavior in novel environment. The experiment was conducted 30 min after last dosing time. Mice placed in the center of an empty open field (25 cm×25 cm) were allowed to explore the environment for 5 min without any external disturbance. Ethnovision XT software was used to measure the patterns of movement, time spent in the center and margin, velocity, distance traveled as indicators of agility and exploration.

[4] = system: Aβ plaques; test: Immunohistochemistry of Aβ plaques (4G8 antibody), 3×Tg mice; conditions: 50 mg/kg oral 7 months
Protocol: (§2) Homozygous 3×Tg mice (APP KM670/671NL (Swedish), MAPT P301L, PSEN1 M146V) were produced in Hong Kong Baptist University animal house and maintained at 23±2° C. temperature, 60±15% relative humidity with free access to food and water ad libitum.
Brain sections (30 μm) were cut on a microtome and stored at 4° C. in PBS+0.1% sodium azide. Sections were permeabilized for 10 min with cold PBS containing 0.5% Triton X-100 and blocked with 3% bovine serum albumin for 1 h at room temperature.

[5] = system: 5×FAD mice; test: Contextual fear conditioning; conditions: 50 mg/kg oral daily 4 months, P<0.05
Protocol: Male 5×FAD mice were purchased from Jackson laboratories (Stock number 006554) and maintained at 23±2° C. temperature, 60±15% relative humidity with free access to food and water ad libitum. 5×FAD male mice were inbred with wild-type (WT, C57/BL6) female mice to produce heterozygous offspring. Offspring were genotyped to select 5×FAD (APP KM670/671NL (Swedish), APP I716V (Florida), APP V717I (London), PSEN1 M146L (A>C), PSEN1 L286V) gene mutations mice. Two months old WT and 5×FAD mice (male and female, n=10-14 per group) were treated daily with vehicle (1% sodium carbonyl methylcellulose [CMC-Na; Sigma-Aldrich, C5678]), curcumin analogue C1 (5 mg/kg, 10 mg/kg) or curcumin (50 mg/kg; Sigma-Aldrich, 08511) suspended in 1% CMC-Na by oral gavage for 4 months.
Contextual fear conditioning (CFC) was used to evaluate the fear memory reconsolidation of 5×FAD mice after treatment. The experiment was conducted 30 min after the drug treatment in ANY maze fear conditioning system under licensed ANY maze tracking system connected to a Windows XP computer. A digital camera was installed on each chamber and signals were sent to the computer for analysis. The experiments were conducted in two sound proof chambers. All the experiments were conducted with continuous 40 units of white noise and 40 lux white light. During training, mice were allowed to explore the platform for 2.5 min and then received 3 repeated footshock cycles (30 s) at 30 s intervals, each started with a cue tone (28 s, 1500 Hz) and ended by a footshock ([…], 2 s). On the second day the mice were allowed to explore the platform for 3 min followed by a cue tone (30 s, 1500 Hz) without footshock, and the freezing time was recorded. Contextual fear memory formation and the subsequent remote memory stabilization were evaluated by scoring freezing index (the absence of all but respiratory movement).

[6] = Pharmacokinetic study in mice, oral (brain and blood levels by LC/MS/MS); conditions: male, mouse, C57BL/6 mice, oral 10 mg/kg, brain
[7] = system: APP, CTFs, phosphorylated Tau, total Tau, TFEB, LC3-II; test: Western blotting of hippocampus, female 3×Tg mice; conditions: 50 mg/kg oral 7 months
Protocol: as §2, §1

[8] = 5×FAD mice, male and female, 50 mg/kg oral 4 months

SMILES: COc1cc(/C=C/C(=O)CC(=O)/C=C/c2ccc(O)c(OC)c2)ccc1O [curcumin, Curcumin, reference compound]
- LC3-II levels in brain (autophagy enhancement) [1, 8]: increase in LC3-II levels
- levels of A3 in brain [1, 8]: significantly reduced
- levels of APP CTFs in brain [1, 8]: significantly reduced
- Fl-APP levels in brain ([1]; female 5×FAD mice, oral 4 months): reduced Fl-APP levels
- percentage of time spent in the target quadrant, probe trial, vs vehicle [2]: significantly increased
- improvement in the open field test [3]: no significant improvement
- Aβ load [4]: no significant reduction
- freezing index (memory reconsolidation) vs vehicle [5]: significant memory reconsolidation
- Tmax [6]: 1 h
- Cmax ([6]; read-out: maximum concentration (Cmax) in the brain): 73.77 ± 0.24 ng/g
- CTFs [7]: no significant reduction
- levels of phosphorylated Tau (PHF1, AT8) ([7]; hippocampus): significantly decreased
